Earlier results in patent US20180028451A1, “IMMEADIATE RELEASE ORAL TABLET” (Boehringer Ingelheim International GmbH, priority 2015, published 2018).

Settings: physiological pH range of the gastro-intestinal tract between pH 1 to 7

solubility in aqueous systems: very poor solubility
SMILES: CCCc1nc2c(C)cc(-c3nc4ccccc4n3C)cc2n1Cc1ccc(-c2ccccc2C(=O)O)cc1 [Telmisartan, 4′-[2-n-propyl-4-methyl-6-(1-methylbenzimidazol-2-yl)-benzimidazol-1-ylmethyl]-biphenyl-2-carboxylic acid]
